Read-outs that look alike come from different tables or passages of the source.

From patent US20230233569A1 (Revolution Medicines, Inc., priority 2020, published 2023) come the findings set out here.

Assay [1] deals with AsPC-1 (K-Ras G12D). As to the kind of experiment: CellTiter-Glo cell viability assay. The note with it: Homo sapiens, ASPC1, 120 h. The class given is cell-based. On the procedure:
Determination of Cell Viability in RAS Mutant Cancer Cell Lines
Protocol: CellTiter-Glo® Cell Viability Assay
Note—The following protocol describes a procedure for monitoring cell viability of K-Ras mutant cancer cell lines in response to a compound of the invention. Other RAS isoforms may be employed, though the number of cells to be seeded will vary based on cell line used.
Test compounds (132.5 nL) were directly dispensed into the assay plates containing cells. […] On day 5, assay plates and their contents were equilibrated to room temperature for approximately 30 minutes. […] Luminescence was measured using the PerkinElmer Enspire. Data were normalized by the following: (Sample signal/Avg. DMSO)*100. The data were fit using a four-parameter logistic fit.
Background: Cellular ATP, detected with luciferase, serves as a proxy for viable cell number.

For assay [2], the target named is T1, KRAS G12C (Homo sapiens, UniProt P01116+P62937, G12C). The experiment in a line: Ras-Raf disruption / FRET / MOA assay (BRAF RBD). The class given is biochemical. The following applies: KRAS G12C FRET data IC50, Ras-Raf disruption, with Cyclophilin A. The method, boiled down:
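His6-K-Ras G12C-GMPPNP (12.5 nM), GST-BRAF RBD (50 nM) and tagless Cyclophilin A (25 μM) incubated 3 h at 25 °C with compound (10-point 3-fold series from 30 μM), pH 7.3 HEPES buffer. Anti-His Eu/anti-GST APC added for 1.5 h; decreased TR-FRET ratio vs DMSO gives IC50.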
Target sequence in this assay (P01116 1-169 isoform P01116-2 G12C limits assumed): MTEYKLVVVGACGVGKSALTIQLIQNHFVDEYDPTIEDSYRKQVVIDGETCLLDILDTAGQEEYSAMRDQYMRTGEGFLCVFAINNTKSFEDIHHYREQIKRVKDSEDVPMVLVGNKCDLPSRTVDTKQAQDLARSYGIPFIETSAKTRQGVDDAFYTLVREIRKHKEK
Target sequence in this assay (P62937 whole entry): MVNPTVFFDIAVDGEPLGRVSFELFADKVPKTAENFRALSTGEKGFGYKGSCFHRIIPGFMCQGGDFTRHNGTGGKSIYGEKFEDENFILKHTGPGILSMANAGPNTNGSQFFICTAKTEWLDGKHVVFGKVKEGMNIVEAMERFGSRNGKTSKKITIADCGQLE

For assay [3], the target named is T2, KRAS G12D (Homo sapiens, UniProt P01116+P62937, G12D). As to the kind of experiment: Ras-Raf disruption / FRET / MOA assay (BRAF RBD). The class given is biochemical. The following applies: KRAS G12D FRET data IC50, Ras-Raf disruption, with Cyclophilin A. The method, boiled down:
(§1)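 TR-FRET in 25 mM HEPES pH 7.3, 100 mM NaCl, 5 mM MgCl2, 0.1% BSA, 0.002% Tween20 with 25 μM Cyclophilin A, 12.5 nM His6-Ras-GMPPNP, 50 nM GST-BRAF RBD; compound 10-point 3-fold series from 30 μM. After 3 h at 25 °C, Eu anti-His/APC anti-GST added for 1.5 h; IC50 from ratio decrease versus DMSO.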

The target of assay [4] is KRAS G12S (Homo sapiens, UniProt P01116+P62937, G12S). As to the kind of experiment: Ras-Raf disruption / FRET / MOA assay (BRAF RBD). The note with it: KRAS G12S FRET data IC50, Ras-Raf disruption, with Cyclophilin A. It counts as biochemical. The method, boiled down:
as §1

For assay [5], the target named is T3, NRAS G12C (Homo sapiens, UniProt P01111+P62937, G12C). As to the kind of experiment: Ras-Raf disruption / FRET / MOA assay (BRAF RBD). It counts as biochemical. The following applies: NRAS G12C FRET data IC50, NRAS G12C. The method, boiled down:
as §1

Assay [6] concerns the target KRAS WT (Homo sapiens, UniProt P01116+P62937). The experiment in a line: Ras-Raf disruption / FRET / MOA assay (BRAF RBD). The following applies: KRAS WT FRET data IC50, Ras-Raf disruption, with Cyclophilin A. It counts as biochemical. In a few lines: as §1
Assay [7] deals with KRAS G12V (Homo sapiens, UniProt P01116+P62937, G12V). As to the kind of experiment: Ras-Raf disruption / FRET / MOA assay (BRAF RBD). It counts as biochemical. The following applies: KRAS G12V FRET data IC50, Ras-Raf disruption, with Cyclophilin A. The method, boiled down: as §1
Sequence of KRAS G12V (P01116 1-169 isoform P01116-2 G12V limits assumed): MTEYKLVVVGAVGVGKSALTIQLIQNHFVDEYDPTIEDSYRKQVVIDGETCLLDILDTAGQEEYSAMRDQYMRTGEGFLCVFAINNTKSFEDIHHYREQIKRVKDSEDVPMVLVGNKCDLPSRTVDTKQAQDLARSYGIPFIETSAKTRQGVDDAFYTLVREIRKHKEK
Sequence of KRAS G12V (P62937 whole entry): as the sequence (P62937 whole entry) above
Assay [8] addresses T4, KRAS G13C (Homo sapiens, UniProt P01116+P62937, G13C). As to the kind of experiment: Ras-Raf disruption / FRET / MOA assay (BRAF RBD). The class given is biochemical. The following applies: KRAS G13C FRET data IC50, Ras-Raf disruption, with Cyclophilin A. The method, boiled down: as §1
Target sequence in this assay (P01116 1-169 isoform P01116-2 G13C limits assumed): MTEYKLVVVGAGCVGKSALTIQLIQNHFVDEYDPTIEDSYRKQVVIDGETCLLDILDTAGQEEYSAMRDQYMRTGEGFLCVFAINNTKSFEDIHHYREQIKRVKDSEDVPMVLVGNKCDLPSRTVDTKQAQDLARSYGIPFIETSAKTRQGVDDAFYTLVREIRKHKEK
Target sequence in this assay (P62937 whole entry): as the sequence (P62937 whole entry) above
The target in assay [9] is KRAS G13D (Homo sapiens, UniProt P01116+P62937, G13D). As to the kind of experiment: Ras-Raf disruption / FRET / MOA assay (BRAF RBD). The class given is biochemical. The following applies: KRAS G13D FRET data IC50, Ras-Raf disruption, with Cyclophilin A. The method, boiled down: as §1
Sequence of KRAS G13D (P01116 1-169 isoform P01116-2 G13D limits assumed): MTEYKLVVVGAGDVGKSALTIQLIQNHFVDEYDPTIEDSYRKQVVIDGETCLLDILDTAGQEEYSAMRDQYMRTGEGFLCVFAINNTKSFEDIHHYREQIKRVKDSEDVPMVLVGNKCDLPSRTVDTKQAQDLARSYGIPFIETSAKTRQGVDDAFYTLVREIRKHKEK
Sequence of KRAS G13D (P62937 whole entry): as the sequence (P62937 whole entry) above
Assay [10] deals with AsPC-1 (K-Ras G12D). As to the kind of experiment: Potency assay: pERK. The note with it: Homo sapiens, ASPC1; AsPC-1 KRAS G12D; read-out: pERK EC50. The class given is cell-based.
Assay [11] concerns K-Ras G12C (NCI-H358 cells). As to the kind of experiment: Potency assay: pERK (AlphaLISA SureFire or In-Cell Western). It counts as cell-based. The following applies: Homo sapiens, NCI-H358; H358 KRAS G12C; read-out: pERK EC50. The method, boiled down: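 NCI-H358 cells plated overnight, then treated 4 h at 37 °C with 10-point 3-fold DMSO dilutions (10 mM top stock), in duplicate. pERK1/2 read by AlphaLISA SureFire Ultra lysate assay or by In-Cell Western with DRAQ5 DNA stain. IC50 from 4-parameter sigmoidal fit of signal vs log concentration.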

Assay [12] addresses T2, KRAS G12D. As to the kind of experiment: Disruption of BRAF RBD interaction with Ras (FRET / MOA assay, with Cyclophilin A). The class given is biochemical. The following applies: read-out: KRAS G12D FRET data, IC50. The method, boiled down:
(§2)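 Compound-driven ternary complex formation between nucleotide-loaded K-Ras and Cyclophilin A was measured as loss of BRAF RBD binding. Compounds (10-point 3-fold series, top 30 μM final) were incubated 3 h at 25 °C, then anti-His Eu-W1024 (10 nM) and anti-GST allophycocyanin (50 nM) added for 1.5 h. IC50 was taken from the TR-FRET ratio decrease versus DMSO.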

Assay [13] addresses T1, KRAS G12C. Described as above. The class given is biochemical. The following applies: KRAS G12C; read-out: KRAS G12C FRET data IC50. The method, boiled down:
as §2
Target sequence in this assay (P01116 1-169 isoform P01116-2 G12C): as the sequence (P01116 1-169 isoform P01116-2 G12C limits assumed) above
Target sequence in this assay (P62937 whole entry): as the sequence (P62937 whole entry) above

Assay [14] has as its target T3, NRAS G12C. The description is as above. It counts as biochemical. The note with it: NRAS G12C; read-out: NRAS G12C FRET data IC50.
Assay [15] has as its target NRAS Q61K (Homo sapiens, UniProt P01111+P62937, Q61K). The assay is described as above. It counts as biochemical. The note with it: NRAS Q61K; read-out: NRAS Q61K FRET data IC50. In a few lines:
(§3)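 TR-FRET in 25 mM HEPES pH 7.3, 100 mM NaCl, 5 mM MgCl2, 0.1% BSA: 25 μM Cyclophilin A, 12.5 nM His6-Ras-GMPPNP, 50 nM GST-BRAF RBD with compound (10-point 3-fold series from 30 μM), 3 h at 25° C. Anti-His Eu/anti-GST APC added, 1.5 h more; IC50 from decreased FRET ratio versus DMSO.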

Assay [16] concerns the target NRAS Q61R (Homo sapiens, UniProt P01111+P62937, Q61R). The description is as above. The note with it: NRAS Q61R; read-out: NRAS Q61R FRET data IC50. It counts as biochemical. In a few lines:
as §3

Assay [17] concerns NCI-H358 (K-Ras G12C). As to the kind of experiment: CellTiter-Glo cell viability assay, 5-day treatment. It counts as cell-based. The following applies: Homo sapiens, NCI-H358, H358, K-Ras G12C; read-out: Additional H358 Cell Viability assay data (K-Ras G12C, IC50). In a few lines:
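Seeded cells received test compound by direct dispensing. On day 5 the plates sat at room temperature approximately 30 minutes, then luminescence was measured. Data were normalized to DMSO and curve-fitted with four parameters.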

Assay [18] has as its target T4, KRAS G13C. As to the kind of experiment: Disruption of BRAF RBD interaction with Ras (FRET / MOA assay, with Cyclophilin A). The class given is biochemical. The following applies: KRAS G13C; read-out: KRAS G13C FRET data IC50. The method, boiled down: as §2
Target sequence in this assay (P01116 1-169 isoform P01116-2 G13C): as the sequence (P01116 1-169 isoform P01116-2 G13C limits assumed) above
Target sequence in this assay (P62937 whole entry): as the sequence (P62937 whole entry) above
[19] abbreviates: read-out: AsPC-1 Cell Viability assay data IC50, K-Ras G12D, 5-day treatment.
Where [20] appears, read: K-Ras G12D, 5-day treatment, read-out: AsPC-1 Cell Viability assay data IC50.

T3 sequence (P01111 whole entry G12C): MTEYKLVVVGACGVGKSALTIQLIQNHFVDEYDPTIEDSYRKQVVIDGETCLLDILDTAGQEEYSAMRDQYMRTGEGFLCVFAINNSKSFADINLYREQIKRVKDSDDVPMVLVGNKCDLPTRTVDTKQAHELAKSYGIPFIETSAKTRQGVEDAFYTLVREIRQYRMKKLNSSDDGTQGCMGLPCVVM
T3 sequence (P62937 whole entry): as the sequence (P62937 whole entry) above
T2 sequence (P01116 1-169 isoform P01116-2 G12D limits assumed): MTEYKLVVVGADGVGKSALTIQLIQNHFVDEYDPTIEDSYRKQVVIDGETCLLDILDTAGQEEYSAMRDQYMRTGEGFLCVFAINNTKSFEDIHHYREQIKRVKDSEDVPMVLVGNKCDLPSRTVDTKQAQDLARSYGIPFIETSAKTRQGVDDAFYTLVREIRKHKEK
T2 sequence (P62937 whole entry): as the sequence (P62937 whole entry) above
Sequence of NRAS Q61R (P01111 whole entry Q61R): as the sequence (P01111 whole entry G12C) above, with C12G, Q61R counted along it
Sequence of NRAS Q61R (P62937 whole entry): as the sequence (P62937 whole entry) above
Sequence of NRAS Q61K (P01111 whole entry Q61K): as the sequence (P01111 whole entry G12C) above, with C12G, Q61K counted along it
Sequence of NRAS Q61K (P62937 whole entry): as the sequence (P62937 whole entry) above
Sequence of KRAS G12S (P01116 1-169 isoform P01116-2 G12S limits assumed): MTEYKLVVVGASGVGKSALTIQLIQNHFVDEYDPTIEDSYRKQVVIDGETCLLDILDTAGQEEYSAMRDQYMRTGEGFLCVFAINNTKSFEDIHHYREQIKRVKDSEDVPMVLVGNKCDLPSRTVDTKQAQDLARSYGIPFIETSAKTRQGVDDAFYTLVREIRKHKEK
Sequence of KRAS G12S (P62937 whole entry): as the sequence (P62937 whole entry) above
Sequence of KRAS WT (P01116 1-169 isoform P01116-2 limits assumed): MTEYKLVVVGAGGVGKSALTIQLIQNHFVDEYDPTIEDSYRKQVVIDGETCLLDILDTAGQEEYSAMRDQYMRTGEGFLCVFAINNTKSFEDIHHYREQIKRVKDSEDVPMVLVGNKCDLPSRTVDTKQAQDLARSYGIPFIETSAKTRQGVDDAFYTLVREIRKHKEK
Sequence of KRAS WT (P62937 whole entry): as the sequence (P62937 whole entry) above

The IC50 is the concentration that gives 50% inhibition. As for `CCn1c(-c2cnccc2COC)c2c3cc(ccc31)-c1cc(O)cc(c1)C[C@H](NC(=O)[C@H](C(C)C)N(C)C(=O)CN(C)C(=O)[C@H]1N[C@H]1c1ccccc1)C(=O)N1CCC[C@H](N1)C(=O)OCC(C)(C)C2` [Example 116], the IC50 in assay [1] (setting [19]) was above 10000 nM.
Take `CCn1c(-c2cccnc2[C@H](C)OC)c2c3cc(ccc31)-c1cc(O)cc(c1)C[C@H](NC(=O)[C@H](C(C)C)N(C)C(=O)CN(C)C(=O)[C@H]1N[C@@H]1C1CC1)C(=O)N1CCC[C@H](N1)C(=O)OCC(C)(C)C2` [Example 135]: the half-maximal inhibitory concentration (IC50) in assay [1] (setting [19]) was 100 to 1000 nM; in assay [2], below 10 nM; in [3], 10 to 100 nM; in assay [4], below 10 nM; in [5], below 10 nM; in assay [6] it was 10 to 100 nM. Besides, the IC50 in assay [7] was 10 to 100 nM; in assay [8], below 10 nM; in assay [9] it was 10 to 100 nM.
For orientation: EC50 means the midpoint of the concentration-response curve. Take `CCn1c(-c2cccnc2[C@H](C)OC)c2c3cc(ccc31)-c1cc(O)cc(c1)C[C@H](NC(=O)[C@@H](C(C)C)N(C)C(=O)[C@@]1(C)CCCN1C(=O)[C@H]1CN1)C(=O)N1CCC[C@H](N1)C(=O)OCC(C)(C)C2` [Example 240]: the concentration for half-maximal inhibition (IC50) in assay [1] (setting [20]) lay in the range of 1000 to 10000 nM. Moreover, the EC50 in assay [10] was below 5000 nM.
For `CCn1c(-c2cccnc2[C@H](C)OC)c2c3cc(ccc31)-c1cc(O)cc(c1)C[C@H](NC(=O)[C@@H](C(C)C)N(C)C(=O)[C@@]1(C)CCCN1C(=O)[C@@H]1CN1)C(=O)N1CCC[C@H](N1)C(=O)OCC(C)(C)C2` [Example 242] the same measures were 1000 to 10000 nM and below 5000 nM.
On the same counts, the results for `CCn1c(-c2cccnc2[C@H](C)OC)c2c3cc(ccc31)-c1cc(O)cc(c1)C[C@H](NC(=O)[C@H](C(C)C)N(C)C(=O)[C@]13C[C@H]1CCN3C(=O)[C@H]1CN1)C(=O)N1CCC[C@H](N1)C(=O)OCC(C)(C)C2` [Example 244] are 1000 to 10000 nM and below 5000 nM.
For `CCn1c(-c2cccnc2[C@H](C)OC)c2c3cc(ccc31)N1CCC[C@@H](C[C@H](NC(=O)[C@H](C(C)C)N(C)C(=O)C3(F)CCN(C(=O)C#CC(C)(C)N(C)C)CC3)C(=O)N3CCCC(N3)C(=O)OCC(C)(C)C2)C1` [Example A616], the EC50 in assay [11] was below 5000 nM. Moreover, the IC50 in [12] was above 10000 nM; in assay [13], 10 to 100 nM; in [14], below 10 nM; in assay [15], above 10000 nM; in [16] it was above 10000 nM; in assay [17], below 10 nM.
Turning to `C=CC(=O)N(C)CC1CCN(C(=O)N(C)[C@H](C(=O)N[C@H]2Cc3nc(cs3)-c3ccc4c(c3)c(c(-c3cccnc3[C@H](C)OC)n4CC)CC(C)(C)COC(=O)C3CCCN(N3)C2=O)C(C)C)CC1` (stereo partly drawn) [Example A629], the EC50 in assay [11] is below 5000 nM. In addition, the IC50 is 100 to 1000 nM in assay [12]; 10 to 100 nM in assay [14]; 10 to 100 nM in assay [18]; 10 to 100 nM in assay [15]; 10 to 100 nM in [16]; below 10 nM in assay [17].
